{
  "source": "patent US20250049741A1",
  "about": "“COMPOSITION FOR PREVENTING OR TREATING ALZHEIMER'S DISEASE COMPRISING PHOSPHOLIPASE C ACTIVATOR AS AN ACTIVE INGREDIENT” (Korea University Research and Business Foundation, priority 2021, published 2025)",
  "test_system": "CA1 PCs in rat hippocampal slices",
  "experiment": "Ex vivo eCB / S-eCB mobilization protocol: eIPSC amplitudes by whole-cell voltage-clamp",
  "format": "cell-based, Sprague-Dawley rats",
  "details": "m-3M3FBS 30 μM",
  "text": "To test the acute effect of AβO on hippocampal S-eCB mobilization, hippocampal slices from Sprague-Dawley rats (SD, 2 to 3 weeks old, DaeHan Biolink, Co., Ltd., Korea) were used. Male and female rats were used in all in vitro experiments. To test the chronic effect of AβO on hippocampus-dependent memory impairments caused by amyloidosis, the 5XFAD mouse model (6 to 7 months old, #34840-JAX, Jackson Laboratory, USA), which is a mouse model of Alzheimer's disease that mimics AβO depositions, was used. C57BL/6 mice (6 to 7 months old, KOATECH, Korea) were used as wild type (WT) control mice for 5XFAD mice. Male 5XFAD and C57BL/6 mice were used for all in vivo behavioral experiments. The 5XFAD mouse genotypes were identified by polymerase chain reaction (PCR) using DNA extracted from the tails of the mice. All animal-related procedures followed the guidelines of the Institutional Animal Care and Use Committee of Korea University (guidelines for SD rats: KUIACUC-2017-103, guidelines for C57BL/6 and 5XFAD mice: KUIACUC-2019-0068).\nSoluble AβO was prepared according to a previous study (BMC Biol. 2020; 18(1):7). Specifically, Aβ1-42 (Aβ) and a scrambled form of Aβ as a control peptide were purchased in powder form. Aβ and scrambled Aβ were dissolved for monomerization in 1,1,1,3,3,3-hexafluoro-2-propanol (HFIP, Sigma Aldrich, USA) at a final concentration of 1 mM, and the solution was incubated for 90 minutes. After the HFIP was evaporated, the remaining thin and clear film of Aβ or scrambled Aβ was dissolved in dimethyl sulfoxide (DMSO, Sigma Aldrich, USA) to prepare 5 mM Aβ or scrambled Aβ stocks, which were aliquoted and frozen at −20° C. Aβ or scrambled Aβ stocks were thawed and diluted to 100 μM in artificial cerebrospinal fluid (ACSF). Thereafter, Aβ or scrambled Aβ stocks were incubated for oligomerization for 18 hours. The final AβO or scrambled AβO stock solution was diluted to a final concentration of 200 nM in 31.2 ml of ACSF, and rat hippocampal slices were treated with the stock solution for 20 minutes in a recovery chamber before measurement of brain signals. In control experiments for normal brain conditions using a vehicle, rat hippocampal slices were treated with 0.004% DMSO in ACSF.\nThe brains of SD rats were isolated following decapitation under isoflurane-induced anesthesia and transferred into ice-cold ACSF containing 126 mM NaCl, […], 1.25 mM NaH2PO4, 2 mM MgSO4, 2 mM CaCl2), 25 mM NaHCO3, and 10 mM glucose (pH 7.2 to 7.4). The ACSF was continuously oxygenated with 95% O2/5% CO2. Horizontal hippocampal slices (350 μm thickness) were obtained using a vibratome (VT1000S, Leica Biosystems, Germany) and immediately incubated at room temperature in a submerged chamber perfused with oxygenated ACSF for at least 1 hour.\nTo quantify eCB mobilization, the changes in eCB mobilization-induced Schaffer collateral (SC) nerve bundle stimulation-evoked inhibitory postsynaptic current (eIPSC) amplitudes were measured in CA1 PCs through the whole-cell voltage-clamp technique. The whole-cell voltage-clamp technique in CA1 PCs was performed using a MultiClamp 700B amplifier (Molecular Devices, USA) under an infrared differential interference contrast video microscope (BW51W, Olympus, Japan), using a borosilicate electrode (tip resistance: 4 to 8 MΩ) that was filled with an intracellular solution containing 145 mM CsCl, 10 mM HEPES, 2 mM EGTA, 4 mM QX-314, 4 mM Mg-ATP, 0.4 mM […], pH 7.2 to 7.3, and 270 to 280 mOsm/L. To record eIPSCs in the CA1 PCs, a stimulating electrode (A-M Systems, USA) was placed in a stratum radiatum to stimulate the SC pathway that carries CA3 PC axons. Electrical stimulation pulses of 200 to 400 μA amplitudes (20 to 40 μs) were generated using a constant current stimulator (model DS3, Digitimer Ltd., UK). eIPSCs were recorded in CA PCs every 1 second while maintaining the membrane potential at −70 mV.",
  "data": [
    {"smiles": "Cc1cc(C)c(S(=O)(=O)Nc2cccc(C(F)(F)F)c2)c(C)c1", "note": "[m-3M3FBS]", "values": [
      {"measurement": "synergistic enhancement of the suppression of eIPSC amplitudes (S-eCB mobilization) in AβO-treated slices", "setting": "AβO-treated rat hippocampal slices", "value": "completely recovered"},
      {"measurement": "suppression of eIPSC amplitudes, recordings in DMSO-treated and scrambled AβO-treated slices", "setting": "DMSO-treated and scrambled AβO-treated rat hippocampal slices", "value": "not significantly different"}
    ]}
  ]
}
